Reference: patent publication US20090318568A1, “ADHERENT COATING FOR TISSUE SURFACE AND/OR TRANS-TISSUE SURFACE SUBSTANCE DELIVERY” (priority 2009, published 2009)

How the values were obtained:
[1] = Analysis of the paclitaxel residue dissolved in 1,2-propylene glycol; assay type: physicochemical; details: 100 g 1,2-propylene glycol, 135° C. for 45 min
Method: The residue from filtering the glycerol solution of EXAMPLE 1 was added to 100 g of 1,2-propylene glycol, and the resulting mixture warmed to 50° C.; little of the solid material appeared to dissolve. The mixture was then placed in an oven at 135° C. and heated for 45 min.

[2] = Analysis of the filtered paclitaxel solution in glycerol + 1,2-propylene glycol; assay type: physicochemical; details: 100 mg paclitaxel in 100 g USP glycerol warmed to about 50° C.
Method: To this mixture, 60 g of 1,2-propylene glycol was added; the new mixture was mixed, and warmed further.

concentration in solution [1]: 230 µg/mL
Structure (SMILES): CC(=O)O[C@H]1C(=O)[C@@]2(C)[C@H]([C@H](OC(=O)c3ccccc3)[C@]3(O)C[C@H](OC(=O)[C@H](O)[C@@H](NC(=O)c4ccccc4)c4ccccc4)C(C)=C1C3(C)C)[C@]1(OC(C)=O)CO[C@@H]1C[C@@H]2O [paclitaxel]
dissolution in glycerol (observation) [2]: little of the paclitaxel appeared to dissolve
